Test results from patent publication US20070276032A1, “Use of 8-Prenylnaringenin for Hormone Replacement Therapy” (priority 2003, published 2007).
Where “and” joins values, the source holds several entries; their conditions need not be identical. Identical values can stand only once.

Columns and labels:
[1] = Body weight, 8-PN racemic, 2S(−) 8-PN and estradiol hemihydrate in ovariectomized rats (Example 4); type: in vivo, Sprague-Dawley rats; conditions: OVX rats; s.c. once a day, 28 days; 20 mg/kg/d in HP-β-CD
Protocol: (§1) The aim of the study was to directly compare the effects of Prenylnaringenin (racemate) and 2S(−) 8-Prenylnaringenin to the effects of estradiol hemihydrate on bone mineral density and uterine weight on 3-month-old ovariectomized rats using identical formulations. In addition, the effects of estradiolhemihydrate in two vehicles (oily, aqueous) were examined for influence of formulations. The substances were administered subcutaneously(s.c.) seven days a week beginning the day after ovariectomy. At the end of the study, uterine weight and bone mineral density (BMD) of tibia were measured.
(§2) Forty-one female Sprague-Dawley rats, 12-14 weeks of age were randomized into six groups, 6-8 animals in each. Five groups were ovariectomized (OVX) and one group was sham-operated (SHAM). Treatments started on the day following operation and continued for 28 days. The animals were treated s.c. once a day seven times a week as follows. Group 1 (SHAM vehicle group) and group 2 (OVX vehicle group) were given the vehicle 30% hydroxypropyl-β-cyclodextrin (HP-β-CD). Groups 3 and 4 were administered 4 μg/kg/d of estradiol hemihydrate in vehicle benzyl benzoate/ricinus oil (B/R) and in vehicle HP-β-CD, respectively. Groups 5 and 6 were given 20 mg/kg/d of 2S(−)8-Prenylnaringenin and racemic 8-Prenylnaringenin, respectively, both in vehicle HP-β-CD. At the end of the study, left tibiae were excised for the ex vivo BMD […] were taken from all dosing solutions on the first and last day of use.
(§3) Vehicle 1 (used in the groups 1 and 2): 30% hydroxypropyl-β-cyclodextrin and 0.3% NaCl (w/v), 5% ethanol (v/v) in Aqua sterilisata, pH 7.4.
(§4) Vehicle 2 (used when preparing dosing solutions of the groups 4, 5 and 6): 30% hydroxypropyl-β-cyclodextrin and 0.3% NaCl (w/v) in Aqua sterilisata, pH 7.4.
(§5) Vehicle 3 (used when preparing a dosing solution of the group 3): benzyl benzoate/ricinus oil (B/R) 1+4, v/v.

[2] = system: ERE-Luc; assay: Estrogenic activity in the estrogen reporter mouse ERE-Luc model, luciferase activity in organs (Example 5); type: in vivo, mice
Protocol: In order to avoid experimental noise male animals were used.
Fourtyfive heterozygous male ERE-Luc mice of two months of age were fed with soy-free diet for two weeks before assigning them to each experimental group then all the mice were injected intraperitoneally (i.p.) with 250 μl of an oily solution containing the following compounds: • 1. Experimental group 1: vehicle • 2. Experimental group 2: 17β-estradiol at 1.5 μg/kg • 3. Experimental group 3: 2S(−)-8-PN at 30 mg/kg • 4. […] Experimental group 5: genistein at 30 mg/kg.
The treatment was carried out in experimental groups of three mice each and repeated three times (therefore numbers reflect the average of […] determinations on a total of 9 animals).
Six hours after the injection, mice were sacrificed by cervical dislocation and organs were dissected and frozen on dry ice. The following organs were analyzed for lucifererase activity by enzymatic assay: prostate, liver, bone, brain.
Data represent means ±standard deviation of N=9 animals per group.
Analysis of variance (ANOVA) for overall comparison was followed by Tukey test for paired comparisons. All statistical procedures were carried out with Systat and SAS (*P<0.05; **P<0.01).

[3] = system: ovariectomized rats; assay: Trabecular density of proximal tibia, 8-PN racemic, 2S(−) 8-PN and estradiol hemihydrate in ovariectomized rats (Example 4); type: in vivo, Sprague-Dawley rats; conditions: OVX rats; s.c. 28 days; 20 mg/kg/d in HP-β-CD
Protocol: as §1, §2, §3, §4, §5

[4] = system: ovariectomized rats; assay: Relative uterus weight, 8-PN racemic, 2S(−) 8-PN and estradiol hemihydrate in ovariectomized rats (Example 4); type: in vivo, Sprague-Dawley rats; conditions: OVX rats
Protocol: as §1, §2, §3, §4, §5

[5] = system: ovariectomized rats; assay: Ex vivo BMD (pQCT) of proximal tibia, 2S(−) 8-PN in ovariectomized rats (Example 3); design: species or system Sprague-Dawley rats; conditions: animal study with synthetic relatively pure preparation
Protocol: (§6) The aim of the study was to examine bone and uterine effects of a 4-week treatment with 2S(−) 8-Prenylnaringenin (8-PN) in 3-month-old ovariectomized rats. […] At the end of the study, uterine weight and ex vivo bone mineral density (BMD) of tibia were measured.
(§7) A total of 30 female 13-14-week-old Sprague-Dawley rats were used in the study. The animals were randomized into 5 groups, with 6 rats/group. Group 1 was sham-operated (SHAM) and groups 2-5 were ovariectomized (OVX).
(§8) Treatments with the vehicle or test substance started on the day following operation. […] The animals were sacrificed one day after the last dosing. At the end of the study, left tibiae were excised for ex vivo BMD measurement (pQCT) at proximal tibia and uteri were excised for the determination of absolute and relative weights. In addition, samples for the determination of 2S(−)8-Prenylnaringenin concentration were taken from all dosing solutions on the day when they were prepared and on the last day of use. The data of body weights, relative uterine weights and BMD were analyzed with one-way analysis of variance.
Bone mineral density measurement was carried out by pQCT (XCT-960A, Stratec, Germany). The bone specimens were thawed before measurement. Six 1 mm-thick sections of the proximal tibia (2 mm below the epiphyseal growth plate) were scanned at 0.5 mm intervals using a voxel size of 0.148 mm. Total and trabecular BMD (mg/cm^3) were measured. After bone densitometry, the specimens were wrapped back to saline saturated gauzes and stored at −20° C.

[6] = at the bone loss protective dose; Miyamoto et al 1998; cited from earlier work
[7] = reported; cited from earlier work
[8] = system: ovariectomized rats; assay: Relative uterine weight, 2S(−) 8-PN in ovariectomized rats (Example 3); type: in vivo, Sprague-Dawley rats
Protocol: as §6, §7, §8
Relative uterine weight was calculated as percentage of body weight

[9] = s.c. 28 days, 20 mg/kg/d in HP-β-CD, calculated as percentage of body weight

## CC(C)=CCc1c(O)cc(O)c2c1OC(c1ccc(O)cc1)CC2=O (racemic) [8-Prenylnaringenin, 5,7-Dihydroxy-2-(4-hydroxyphenyl)-8-(3-methylbut-2-enyl)-chroman-4-on]
[1]
  Body weight at The end (bw4b): 289(8) g
  The change in Body weight (bw4b-bw0): 27(2) g
[2]; estimated at dosages leading to the same liver estrogenicity
  estrogenic effect in bone and prostate tissue relative to estradiol: twofold higher estrogenic effect in bone and prostate tissue than estradiol
[2]; male ERE-Luc mice, i.p. 30 mg/kg, six hours after the injection, controls 0.5
  Luciferase activity, Prostate: 0.9 ** arbitrary units
[3]
  Trabecular density at left proximal tibia, Mean: 351 mg/cm3
  Trabecular density at left proximal tibia, Median: 351 mg/cm3
[4]; 20 mg/kg/d vs estradiol 4 μg/kg/d, same bone effective dose
  effect on the uterus and body weight compared with estradiol in the same vehicle (HP-β-CD): much lower effect on the uterus and body weight than estradiol at the same bone effective dose
[4]; [9]
  Relative uterus weight, Mean: 0.066
  Relative uterus weight, Median: 0.065
[5]
  effect on bone loss: prevents bone loss in a dose dependent manner
[6]
  effect on uterus growth: significant effect on uterus growth at the bone loss protective dose
[7]
  estrogenic activity relative to genistein: at least one order of magnitude higher than that of the isoflavone genistein
[8]; animal study with synthetic relatively pure preparation
  effect on uterus growth and endometrial stimulation: only a minimal and dose independent effect on uterus growth and endometrial stimulation
[8]; doses equi-effective on protection of bone loss
  effect on uterus proliferation relative to that of estradiol: less than ⅕ and 1/10
[8]; extended to women treated with a bone protective dose
  estrogenic effect on the uterus, equivalent oral estradiol dose: 0.1 to 0.2 mg/day
